Measurements reported in the supplement of paper PMC10307832.

Experiments:
Experiment in all cases: relative viability (nuclei count vs DMSO), 5 days (fraction); higher = more cells survive
[1] = compound: C[C@@H](N)c1ccc(C(=O)Nc2ccnc3[nH]ccc23)cc1 + CC(=O)c1c(C)c2cnc(Nc3ccc(N4CCNCC4)cn3)nc2n(C2CCCC2)c1=O [Palbociclib] (partner 0.5 µM)
Procedure, shortened: (§1)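 Relative viability divides the nuclei count in treated wells by that in vehicle wells. Lung cancer cell lines were seeded in 1536-well plates, dosed by pin tool the next day, and fixed and stained after 5 days in one step with final 0.05% Triton X-100, 1% formaldehyde and 1 ug/ml Hoechst. Dosing was a single drug or a fixed anchor-drug dose plus five library-drug doses (not always all listed) in √10 steps, and values are medians of duplicate plates imaged at 4×.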

[2] = compound: C[C@@H](N)c1ccc(C(=O)Nc2ccnc3[nH]ccc23)cc1 + COc1cc2c(Oc3ccc(NC(=O)C4(C(=O)Nc5ccc(F)cc5)CC4)cc3F)ccnc2cc1OCCCN1CCOCC1 [Foretinib] (partner 0.25 µM)
Procedure, shortened: as §1

Tanzisertib + Decitabine = compound: O[C@H]1CC[C@H](Nc2ncc3nc(Nc4c(F)cc(F)cc4F)n([C@H]4CCOC4)c3n2)CC1 [Tanzisertib] + Nc1ncn([C@H]2C[C@H](O)[C@@H](CO)O2)c(=O)n1 [Decitabine] (partner 2 µM)
Procedure, shortened: as §1

[3] = compound: C1CNCCC1C2=CC(=NN2)C3=CC=NC=C3 + O=C(c1cc(Cc2n[nH]c(=O)c3ccccc23)ccc1F)N1CCN(C(=O)C2CC2)CC1 [Olaparib] (partner 8 µM)
Procedure, shortened: as §1

Cell Line | relative viability ([1]; first compound 0.04 µM) | relative viability ([1]; first compound 0.1265 µM) | relative viability ([1]; first compound 0.4 µM) | relative viability ([1]; first compound 1.265 µM) | relative viability ([1]; first compound 4 µM) | relative viability ([2]; first compound 0.04 µM) | relative viability ([2]; first compound 0.1265 µM) | relative viability ([2]; first compound 0.4 µM) | relative viability ([2]; first compound 1.265 µM) | relative viability ([2]; first compound 4 µM) | relative viability (Tanzisertib + Decitabine; first compound 0.08 µM) | relative viability (Tanzisertib + Decitabine; first compound 0.253 µM) | relative viability (Tanzisertib + Decitabine; first compound 0.8 µM) | relative viability (Tanzisertib + Decitabine; first compound 2.53 µM) | relative viability (Tanzisertib + Decitabine; first compound 8 µM) | relative viability ([3]; first compound 0.08 µM) | relative viability ([3]; first compound 0.8 µM) | relative viability ([3]; first compound 2.53 µM) | relative viability ([3]; first compound 8 µM)
NCI-H2342 | 0.513 | 0.53 | 0.596 | 0.498 | 0.532 | 1.09 | 1.22 | 1.01 | 1.21 | 0.933 | 0.78 | 0.778 | 0.694 | 0.781 | 0.815 | 0.419 | 0.388 | 0.486 | 0.491
NCI-H2347 | 0.422 | 0.443 | 0.41 | 0.483 | 0.463 | 1.17 | 0.964 | 1.22 |  | 1.32 | 0.634 | 0.657 | 0.701 | 0.635 | 0.648 | 0.534 | 0.514 | 0.477 | 0.571
NCI-H2405 |  | 0.505 | 0.494 | 0.3 | 0.233 | 1.12 | 1.09 | 1.13 | 0.838 | 0.519 | 0.784 | 0.783 | 0.76 | 0.914 | 0.629 | 0.843 | 0.952 | 0.894 | 0.831
NCI-H3122 | 0.221 | 0.188 | 0.23 | 0.243 | 0.221 | 0.943 | 1.03 | 0.952 | 0.98 | 0.897 | 0.43 | 0.409 | 0.412 | 0.366 | 0.439 | 0.571 | 0.6 | 0.583 | 0.61
PC-3 [JPC-3] | 0.544 | 0.516 | 0.53 | 0.551 | 0.575 | 1.05 | 0.996 | 1.09 | 0.982 | 0.936 | 0.836 | 0.787 | 0.803 | 0.801 | 0.737 | 1.09 | 1.24 | 1.11 | 1.15
PC-14 | 0.552 | 0.537 | 0.483 |  | 0.367 | 0.753 | 0.943 | 0.95 | 0.877 | 0.832 | 0.261 | 0.23 | 0.212 | 0.192 | 0.202 | 0.21 | 0.273 | 0.228 | 0.279
RERF-LC-KJ | 1.05 | 1.12 | 1.22 | 1.23 | 0.943 | 0.899 | 0.811 | 0.9 | 0.899 | 0.909 | 0.75 | 0.771 | 0.705 | 0.688 | 0.628 | 0.849 | 0.873 | 0.945 | 0.954
SK-LU-1 | 0.42 | 0.44 | 0.465 | 0.273 | 0.338 | 0.96 | 0.804 | 0.82 | 0.732 | 0.573 | 0.707 | 0.796 | 0.623 | 0.616 | 0.647 | 0.437 | 0.425 | 0.467 | 0.439
SK-MES-1 | 0.312 | 0.365 | 0.306 | 0.337 | 0.271 | 0.849 | 1.07 | 0.847 | 0.785 | 0.78 | 0.365 | 0.409 | 0.364 | 0.34 | 0.327 | 0.553 | 0.849 | 0.714 | 0.684
SW 900 | 0.564 | 0.607 | 0.547 | 0.581 | 0.611 | 1.1 | 0.972 | 0.867 | 0.86 | 0.762 |  | 0.485 | 0.412 | 0.328 | 0.438 | 1.02 |  | 0.868 | 0.861
SW 1573 | 0.491 | 0.416 | 0.385 | 0.356 | 0.341 | 1.06 | 0.964 | 1.19 | 0.93 | 0.849 | 0.595 | 0.471 | 0.535 | 0.516 | 0.394 |  | 0.612 | 0.655 | 0.626
